In brackets after ≈: the same amount, converted by molar mass. Where two headings read alike, the source gives them in different places.
Columns and labels:
[1] = target: T1, full-length beta-Catenin (Uniprot ID P35222) (Homo sapiens, UniProt P35222); experiment: Fluorescence polarization IC50 (beta-catenin / 5FAM-TCF4 10-53 competition); type: binding
T1 construct: 10 nM full-length beta-Catenin (Uniprot ID P35222)
T1 sequence (P35222 1-781): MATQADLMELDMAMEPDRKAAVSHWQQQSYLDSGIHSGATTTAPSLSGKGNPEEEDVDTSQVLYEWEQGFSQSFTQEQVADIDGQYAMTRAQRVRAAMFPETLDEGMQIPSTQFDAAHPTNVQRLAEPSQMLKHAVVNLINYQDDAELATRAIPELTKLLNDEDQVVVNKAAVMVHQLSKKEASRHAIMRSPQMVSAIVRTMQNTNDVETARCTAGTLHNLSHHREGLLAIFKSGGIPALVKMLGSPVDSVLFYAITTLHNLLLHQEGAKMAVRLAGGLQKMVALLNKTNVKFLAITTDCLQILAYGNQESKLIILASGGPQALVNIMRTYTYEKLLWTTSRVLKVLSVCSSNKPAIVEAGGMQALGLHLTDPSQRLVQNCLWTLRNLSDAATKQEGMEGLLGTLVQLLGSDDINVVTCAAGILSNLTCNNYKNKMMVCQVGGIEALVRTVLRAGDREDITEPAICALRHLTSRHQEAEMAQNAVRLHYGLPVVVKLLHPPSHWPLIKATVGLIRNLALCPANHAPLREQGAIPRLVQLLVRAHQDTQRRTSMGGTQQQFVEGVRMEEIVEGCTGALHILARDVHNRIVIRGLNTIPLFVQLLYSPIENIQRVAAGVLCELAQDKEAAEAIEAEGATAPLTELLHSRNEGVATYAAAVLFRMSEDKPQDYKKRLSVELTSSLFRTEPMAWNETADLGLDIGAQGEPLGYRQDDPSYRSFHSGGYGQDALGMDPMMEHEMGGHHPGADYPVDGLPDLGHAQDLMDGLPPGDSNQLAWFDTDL

CHI Log D procedure = type: physicochemical; details: for chromatographic logD: pH 7.4, CHI Log D; for CHI Log D: pH 7.4
Solubility in PBS = type: physicochemical
How it was run: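 Read-out is the HPLC peak area of the supernatant from ultracentrifuged PBS solution, scaled against a 50 μM peptide DMSO injection; value reported as [(PBS area)/(DMSO area)]*50 uM.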

[2] = target: T2, beta-catenin/TCF4 engagement (Homo sapiens, UniProt P35222); experiment: Nano-BRET target engagement assay (B-cat-Halo & TCF4-Luc in HEK293 cells); type: cell-based
T2 construct: expressed in transfected cells; host or cells: HEK293
T2 sequence (P35222 1-781): T1 sequence (P35222 1-781)

[3] = absolute IC50; read-out: NanoBRET Abs IC50
[4] = fluorescence polarization, beta-catenin, read-out: FP EC50

CC(=O)N1CCC[C@]12CC=CCCCC1(CCCC=CCCCOC(=O)N3CC[C@@](C(=O)N[C@@H](Cc4ccccc4Cl)C(=O)N[C@@H](Cc4csc5ccccc45)C(=O)N[C@@H](CCC(N)=O)C(N)=O)(C3)NC(=O)[C@H](CC(N)=O)NC(=O)[C@H](Cc3ccccc3)NC(=O)[C@H](C)NC(=O)[C@H](C)NC(=O)[C@H](CC(=O)O)NC(=O)[C@H](CC(=O)O)NC1=O)NC(=O)[C@H](Cc1ccccc1)NC(=O)[C@H](CC(=O)O)NC2=O (stereo partly drawn) [I-1041, Ac-PL3-Asp-Phe-B5-Asp-Asp-Ala-Ala-Phe-Asn-PyrS2-2C1F-BztA-Gln-NH2]
IC50 ([1]; read-out: beta-Catenin FP IC50): 8 nM | chromatographic logD (CHI Log D procedure): 2.08 | Solubility (Solubility in PBS): 50 µM (≈ 98.3 µg/mL) | IC50 [2, 3]: > 20000 nM

CC(=O)N1CCC[C@]12CC=CCCCC1(CCCC=CCCCOC(=O)N3CC[C@@](C(=O)N[C@@H](Cc4ccccc4Cl)C(=O)N[C@@H](Cc4csc5ccccc45)C(=O)N[C@@H](CCC(N)=O)C(N)=O)(C3)NC(=O)[C@H]([C@@H](C)O)NC(=O)[C@H](Cc3ccccc3)NC(=O)[C@H](C)NC(=O)[C@H](C)NC(=O)[C@H](CC(=O)O)NC(=O)[C@H](CC(=O)O)NC1=O)NC(=O)[C@H](CC1CCCCC1)NC(=O)[C@H](CC(=O)O)NC2=O (stereo partly drawn) [I-1042, Ac-PL3-Asp-Cha-B5-Asp-Asp-Ala-Ala-Phe-Thr-PyrS2-2C1F-BztA-Gln-NH2]
IC50 ([1]; read-out: beta-Catenin FP IC50): 5 nM | chromatographic logD (CHI Log D procedure): 2.35 | Solubility (Solubility in PBS; Solubility (uM)): 46 µM (≈ 90.1 µg/mL) | IC50 ([2]; read-out: NanoBRET Abs IC50): 11400 nM

CC(=O)N1CCC[C@]12CC=CCCCC1(CCCC=CCCCOC(=O)N3CC[C@@](C(=O)N[C@@H](Cc4ccccc4Cl)C(=O)N[C@@H](Cc4csc5ccccc45)C(=O)N[C@@H](CCC(N)=O)C(N)=O)(C3)NC(=O)[C@H]([C@@H](C)O)NC(=O)[C@H](Cc3ccccc3)NC(=O)[C@H](C)NC(=O)[C@H](C)NC(=O)[C@H](CC(=O)O)NC(=O)[C@H](CC(=O)O)NC1=O)NC(=O)[C@H](Cc1ccccc1)NC(=O)[C@H](CC(=O)O)NC2=O (stereo partly drawn) [I-1043, Ac-PL3-Asp-Phe-B5-Asp-Asp-Ala-Ala-Phe-Thr-PyrS2-2C1F-BztA-Gln-NH2]
IC50 ([1]; read-out: beta-Catenin FP IC50): 12 nM | chromatographic logD (CHI Log D procedure): 2.15 | Solubility (Solubility in PBS; Solubility (uM)): 43 µM (≈ 84 µg/mL) | IC50 ([2]; read-out: NanoBRET Abs IC50): > 20000 nM

CC(=O)N1CCC[C@]12CC=CCCCC1(CCCC=CCCCOC(=O)N3CC[C@@](C(=O)N[C@@H](Cc4ccccc4Cl)C(=O)N[C@@H](Cc4csc5ccccc45)C(=O)N[C@@H](CCC(N)=O)C(N)=O)(C3)NC(=O)[C@H](CO)NC(=O)[C@H](Cc3ccccc3)NC(=O)[C@H](C)NC(=O)[C@H](C)NC(=O)[C@H](CC(=O)O)NC(=O)[C@H](CC(=O)O)NC1=O)NC(=O)[C@H](Cc1ccccc1)NC(=O)[C@H](CC(=O)O)NC2=O (stereo partly drawn) [I-1045, Ac-PL3-Asp-Phe-B5-Asp-Asp-Ala-Ala-Phe-Ser-PyrS2-2C1F-BztA-Gln-NH2]
IC50 ([1]; read-out: beta-Catenin FP IC50): 5 nM | chromatographic logD (CHI Log D procedure): 2.12 | Solubility (Solubility in PBS; Solubility (uM)): 49 µM (≈ 95 µg/mL) | IC50 [2, 3]: 23900 nM

CC(=O)N1CCC[C@]12CC=CCCCC1(CCCC=CCCCOC(=O)N3CC[C@@](C(=O)N[C@@H](Cc4ccccc4Cl)C(=O)N[C@@H](Cc4csc5ccccc45)C(=O)N[C@@H](CO)C(N)=O)(C3)NC(=O)[C@H](CC(N)=O)NC(=O)[C@H](Cc3ccccc3)NC(=O)[C@H](C)NC(=O)[C@H](C)NC(=O)[C@H](CC(=O)O)NC(=O)[C@H](CC(=O)O)NC1=O)NC(=O)[C@H](CC1CCCCC1)NC(=O)[C@H](CC(=O)O)NC2=O (stereo partly drawn) [I-1046, Ac-PL3-Asp-Cha-B5-Asp-Asp-Ala-Ala-Phe-Asn-PyrS2-2C1F-BztA-Ser-NH2]
IC50 ([1]; read-out: beta-Catenin FP IC50): 5 nM | chromatographic logD (CHI Log D procedure): 2.4 | Solubility (Solubility in PBS; Solubility (uM)): 37 µM (≈ 71.5 µg/mL) | IC50 [2, 3]: 20500 nM

CC(=O)N1CCC[C@]12CC=CCCCC1(CCCC=CCCCOC(=O)N3CC[C@@](C(=O)N[C@@H](Cc4ccccc4Cl)C(=O)N[C@@H](Cc4csc5ccccc45)C(=O)N[C@@H](CO)C(N)=O)(C3)NC(=O)[C@H](CC(N)=O)NC(=O)[C@H](Cc3ccccc3)NC(=O)[C@H](C)NC(=O)[C@H](C)NC(=O)[C@H](CC(=O)O)NC(=O)[C@H](CC(=O)O)NC1=O)NC(=O)[C@H](Cc1ccccc1)NC(=O)[C@H](CC(=O)O)NC2=O (stereo partly drawn) [I-1047, Ac-PL3-Asp-Phe-B5-Asp-Asp-Ala-Ala-Phe-Asn-PyrS2-2C1F-BztA-Ser-NH2]
IC50 ([1]; read-out: beta-Catenin FP IC50): 5 nM | chromatographic logD (CHI Log D procedure): 2.19 | Solubility (Solubility in PBS): 10 µM (≈ 19.3 µg/mL) | IC50 [2, 3]: 28400 nM

C[C@@H]1NC(=O)[C@H](C)NC(=O)[C@H](CC(=O)O)NC(=O)[C@H](CC(=O)O)NC(=O)C2(CCCC=CCCCCCC[C@@](C)(C(=O)N[C@@H](Cc3ccsc3)C(=O)N[C@@H](Cc3csc4ccccc34)C(=O)N[C@@H](CCC(N)=O)C(N)=O)NC(=O)[C@H](CC(N)=O)NC(=O)[C@H](Cc3ccccc3)NC1=O)CCCC=CC[C@]1(CCCN1C(=O)CN=[N+]=[N-])C(=O)N[C@@H](CC(=O)O)C(=O)N[C@@H](CC(C)(C)C)C(=O)N2 (stereo partly drawn) [I-1053, AzAc-PL3-Asp-Npg-B5-Asp-Asp-Ala-Ala-Phe-Asn-S8-3Thi-BztA-Gln-NH2]
IC50 ([1]; read-out: FP EC50, fluorescence polarization, beta-catenin): 11 nM | CHI Log D (CHI Log D procedure): 2.381 | Solubility (Solubility in PBS): 48 µM (≈ 92 µg/mL) | IC50 ([2]; read-out: NanoBRET Abs IC50; absolute IC50): > 20000 nM

CC(=O)N1CCC[C@]12CC=CCCCC1(CCCC=CCCCOC(=O)N3CC[C@@](C(=O)N[C@@H](Cc4ccccc4Cl)C(=O)N[C@@H](Cc4csc5ccccc45)C(=O)N[C@@H](CCC(N)=O)C(=O)NCCCCCCN)(C3)NC(=O)[C@H]([C@@H](C)O)NC(=O)[C@H](Cc3ccccc3)NC(=O)[C@H](C)NC(=O)[C@H](C)NC(=O)[C@H](CN(CC(=O)O)CC(F)(F)F)NC(=O)[C@H](CC(=O)O)NC1=O)NC(=O)[C@H](CC(C)(C)C)NC(=O)[C@H](CC(=O)O)NC2=O (stereo partly drawn) [I-1061, Ac-PL3-Asp-Npg-B5-Asp-TfeGA-Ala-Ala-Phe-Thr-PyrS2-2C1F-BztA-Gln-6AmHex]
IC50 ([1]; read-out: beta-Catenin FP IC50): 6 nM | chromatographic logD (CHI Log D procedure): 2.56 | Solubility (Solubility in PBS): 10 µM (≈ 21.4 µg/mL) | IC50 [2, 3]: 10300 nM

CC(=O)N1CCC[C@]12CC=CCCCC1(CCCC=CCCCOC(=O)N3CC[C@@](C(=O)N[C@@H](Cc4ccccc4)C(=O)N[C@@H](Cc4csc5ccccc45)C(=O)N[C@@H](CCC(N)=O)C(N)=O)(C3)NC(=O)[C@H](CC(C)C)NC(=O)[C@H](Cc3ccccc3)NC(=O)[C@H](C)NC(=O)[C@H](C)NC(=O)[C@H](CC(=O)O)NC(=O)[C@H](CC(=O)O)NC1=O)NC(=O)[C@H](CC(C)(C)C)NC(=O)[C@H](CC(=O)O)NC2=O (stereo partly drawn) [I-1072, Ac-PL3-Asp-Npg-B5-Asp-Asp-Ala-Ala-Phe-Leu-PyrS2-Phe-BztA-Gln-NH2]
IC50 [1, 4]: 723 nM | IC50 ([1]; read-out: beta-Catenin FP IC50): 10 nM | chromatographic logD (CHI Log D procedure): 1.39 | Solubility (Solubility in PBS; Solubility (uM)): 35 µM (≈ 66.9 µg/mL) | IC50 ([2]; read-out: NanoBRET Abs IC50): 10500 nM

CC(=O)N1CCC[C@]12CC=CCCCC1(CCCC=CCCCCCC[C@@](C)(C(=O)N[C@@H](Cc3ccccc3Cl)C(=O)N[C@@H](Cc3csc4ccccc34)C(=O)N[C@@H](CCC(N)=O)C(N)=O)NC(=O)[C@H]([C@@H](C)O)NC(=O)[C@H](Cc3ccccc3)NC(=O)[C@H](C)NC(=O)[C@H](C)NC(=O)[C@H](CCC(=O)O)NC(=O)[C@H](CC(=O)O)NC1=O)NC(=O)[C@H](CC(C)(C)C)NC(=O)[C@H](CC(=O)O)NC2=O (stereo partly drawn) [I-1088, Ac-PL3-Asp-Npg-B5-Asp-Glu-Ala-Ala-Phe-Thr-S8-2ClF-BztA-Gln-NH2]
IC50 [1, 4]: 22 nM | IC50 ([1]; read-out: beta-Catenin FP IC50): 22 nM | CHI Log D (CHI Log D procedure): 2.8 | Solubility (Solubility in PBS): 44 µM (≈ 83.8 µg/mL) | IC50 ([2]; read-out: NanoBRET Abs IC50): 6300 nM

CC(=O)N1CCC[C@]12CC=CCCCC1(CCCC=CCCCCCC[C@@](C)(C(=O)N[C@@H](Cc3ccccc3Cl)C(=O)N[C@@H](Cc3csc4ccccc34)C(=O)N[C@@H](CCC(N)=O)C(N)=O)NC(=O)[C@H]([C@@H](C)O)NC(=O)[C@H](Cc3ccccc3)NC(=O)[C@H](C)NC(=O)[C@H](C)NC(=O)[C@H](CCC(=O)O)NC(=O)[C@H](CC(=O)O)NC1=O)NC(=O)[C@H](CC(C)(C)C)NC(=O)[C@H](CC(=O)O)NC2=O (stereo partly drawn) [I-1089, Ac-PL3-Asp-Npg-B5-Asp-Glu-Ala-Ala-Phe-Thr-S8-2C1F-BztA-Gln-NH2]
IC50 [1, 4]: 12 nM | IC50 ([1]; read-out: beta-Catenin FP IC50): 12 nM | CHI Log D (CHI Log D procedure): 2.826 | Solubility (Solubility in PBS): 43 µM (≈ 81.9 µg/mL) | IC50 ([2]; read-out: NanoBRET Abs IC50): 8900 nM

From patent US20240116985A1, “STAPLED PEPTIDES AND METHODS THEREOF” (priority 2020, published 2024)
